Measured values: a melting point compilation (Tetko et al.)

| melting point | SMILES |
| --- | --- |
| 129 °C | CC(=O)c1ccc(N2CCCC2)cc1 |
| 176 °C | CC(=O)Nc1ccc(C)c(NS(=O)(=O)C(F)(F)F)c1 |
| 232 °C | O=C(O)c1cn(S(=O)(=O)c2ccccc2)c2ccccc12 |
| 40 to 41 °C | COC(=O)c1cc(OCC(F)(F)F)ccc1OCC(F)(F)F |
| 148 to 150 °C | N#CC(c1ccc(O)cc1)N1CCOCC1 (stereo not drawn) |
| 71.5 to 72.5 °C | Oc1ccc(Br)c(F)c1 |
| 196 to 201 °C | O=C(O)c1cc(I)ccc1O |
| 64 °C | CC12C=C(C(=O)Oc3ccccc3)C(CC1)C2(C)C (stereo not drawn) |
| 64 °C | CC(=O)c1csc2ccccc12 |
| 121 °C | O=C(C1=NOC2C(=O)N(c3ccc(Cl)cc3)C(=O)C12)c1ccc2ccccc2c1 (stereo not drawn) |
| 194 °C | O=C(O)COc1cccc(OCC(=O)O)c1 |
| 95 to 97 °C | Cn1cc(Br)c(-c2cccc(N)c2)n1 |
| 160 °C | COc1ccc(-c2nnc3n2NC(c2ccc(Cl)cc2)S3)cc1 (stereo not drawn) |
| 88 °C | Cc1ccc(/C=C2/C=C(CC(C)C)OC2=O)o1 |
| 130 °C | C1#CCOCc2ccccc2COCC#CCOCc2ccccc2COC1 |
| 42 to 44 °C | COC(=O)Cc1nc(-c2ccccc2)sc1C |
| 44 °C | COCCc1ccc(O)cc1 |
| 74 °C | CC(=O)CCc1ccc2c(c1)N(C(=O)c1ccccc1)C(C)CC2 (stereo not drawn) |
| 42 °C | CCOc1ccc(CCO)cc1 |
| 150 to 153 °C | Cc1nc(C2CCN(C(=O)OC(C)(C)C)CC2)sc1CO |
| 236 to 237 °C | NC(Cc1ccc([N+](=O)[O-])cc1)C(=O)O (racemic) |
| 97 to 98 °C | Cc1noc(-c2ccc(Br)cc2)n1 |
| 125 to 126 °C | O=C(Cl)c1csc2ccc(Br)cc12 |
| 209 to 211 °C | CCOC(=O)c1c(NC(=S)Nc2ccc(F)cc2)sc2c1CCCC2 |
| 91 to 93 °C | COc1ccc(Oc2ccc([N+](=O)[O-])cc2C(=O)Cl)cc1 |
| 222 °C | COc1ccc(-c2csc(/C(C#N)=C/c3ccccc3Cl)n2)cc1 |

| melting point | SMILES |
| --- | --- |
| 202 to 207 °C | c1ccc2cc3c(cc2c1)oc1ccccc13 |
| 110 °C | O=Cc1cccc([N+](=O)[O-])c1O |
| 95 °C | CCOC(OCC)c1cccc2c(Br)ccc([N+](=O)[O-])c12 |
| 91 to 92 °C | OCc1ccc2sccc2c1 |
| 35 °C | Cc1ccc(C=O)c(Br)c1 |
| 50 to 51 °C | Cc1ccc(S(=O)(=O)OCC#N)cc1 |
| 20 °C | Oc1ccc(Cl)cc1F |
| 98 to 101 °C | O=C1CCCN1c1ccc(Br)cc1 |
| 185 °C | Cc1oc(S(=O)(=O)N2CCCC2)cc1C(=O)O |
| 234 °C | Cc1c(Cl)cccc1Nc1ncccc1C(=O)O |
| 98 °C | O=Cc1ccc2[nH]ccc2c1 |
| 189 to 191 °C | Cc1cc(O)cc2c1C(=O)CC(C)(C)O2 |
| 174 °C | CC(C)(C(N)=O)n1nc2ccccc2n1 |
| 80 to 84 °C | O=C1C2=C(CCCC2)C(=O)N1CO |
| 97.3 °C | Nc1ccc(N)c(N)c1 |
| 133 °C | COC(=O)c1cc(O)cc(Br)c1 |
| 147 to 150 °C | COc1ccc(C(C)=NO)cc1OC |
| 56 to 58 °C | C[C@H](O)c1ccccc1Br |
| 65 °C | CCOC(=O)COC(=O)c1cc(Oc2ccc(C(F)(F)F)cc2Cl)ccc1[N+](=O)[O-] |
| 99 °C | CC(C)(C)c1ccc2c(c1)C(=O)c1ccccc1C2=O |
| 47 °C | N#Cc1ccc(C(F)(F)F)c(F)c1 |
| 182 °C | CC(C)(C(=O)O)n1nnc2ccccc21 |
| 121 °C | O=C(O)C(Cc1ccccc1)C(=O)O |
| 135 °C | O=C(N=NC(=O)N1CCCCC1)N1CCCCC1 |
| 78 to 82 °C | Fc1ccc2nc(C(F)(F)F)cc(Cl)c2c1 |
| 28 °C | COc1ccccc1CN=C=S |

| melting point | SMILES |
| --- | --- |
| 156 °C | CC1(C)OC(=O)C(=Cc2ccc(Cl)cc2Cl)C(=O)O1 |
| 64 °C | COC(=O)c1ccc(O)c(OC)c1 |
| 94 to 96 °C | Cc1c(C(=O)CBr)cnn1-c1ccccc1 |
| 207 to 209 °C | C=CCSc1nc(=O)[nH]c2c1CCCC2 |
| 216 °C | CN(C)c1ccc2nc3ccc(=O)cc-3sc2c1 |
| 188 °C | COc1ccc(/C=N/n2c(S)nnc2C(F)(F)F)cc1 |
| 199 to 205 °C | O=C(O)c1ccc2ccccc2c1O |
| -3 °C | CC(=O)c1ccc(C)c(C)c1 |
| 180 °C | O=C(OCC1OC(Oc2ccccc2CO)C(O)C(O)C1O)c1ccccc1 (stereo not drawn) |
| 283 °C | Cc1nc(Nc2ncc(C(=O)Nc3c(C)cccc3Cl)s2)cc(N2CCN(CCO)CC2)n1 |
| 89 to 91 °C | COc1cccc2c1ccn2C |
| 283 °C | Cc1noc2c1c(=O)n(-c1ccccc1)c1ccccc21 |
| 127 to 129 °C | O=[N+]([O-])c1ccc2c(c1)S(=O)(=O)CC2SCCO (stereo not drawn) |
| 61 to 63 °C | O=C1CCc2ccc(F)cc21 |
| 230 °C | Cc1nc(-c2ccccc2)sc1CN |
| 138 °C | COc1cc(C(=O)NS(=O)(=O)c2ccccc2C)ccc1Cc1cn(C)c2ccc(NC(=O)OC3CCCC3)cc12 |
| 174 to 175 °C | Nc1[nH]ncc1-c1ccc(F)cc1 |
| 192 °C | O=c1[nH]c(=O)n(C2CC(O)C(CO)O2)cc1Br (stereo not drawn) |
| 96 °C | CC(=O)Nc1ccccc1C(F)(F)F |
| 26.5 °C | COc1ccc2ncccc2c1 |
| 106 °C | Cc1c(Br)sc2ccc(Cl)cc12 |
| 149 °C | NNC(=O)c1ccc(N)c(N)c1 |
| 52 °C | CC(C)(Oc1ccc(Cl)cc1)C(=O)OCCCOC(=O)C(C)(C)Oc1ccc(Cl)cc1 |
| 57 to 59 °C | CC(=O)Oc1ccc(C(C)=O)c(O)c1 |
| 42.5 °C | O=CC=CC=Cc1ccccc1 |
| 211 to 212 °C | S=C(NN=Cc1c(-c2ccc(Cl)cc2)[nH]c2ccccc12)Nc1ccccc1 |

The next lines start with the compound.

| SMILES | melting point |
| --- | --- |
| c1cnc(SSc2ncccn2)nc1 | 139 to 141 °C |
| ICCCI | -20 °C |
| O=C=Nc1cccc(Cl)c1 | -4 °C |
| N#Cc1ccc(N2CCNCC2)nc1 | 131 °C |
| O=C(O)CSCCSCC(=O)O | 110 °C |
| CCCCCCCCc1ccc(/N=N/c2ccc(OC(=O)CCCCCCC)cc2)cc1 | 58 to 63 °C |
| CCCCCCCCCCCCl | -17 °C |
| COc1cc(/C=C/[N+](=O)[O-])c([N+](=O)[O-])cc1OC | 168 to 169 °C |
| CCC(CO)NC(=O)C1C=C2c3cccc4[nH]cc(c34)CC2N(C)C1 (stereo not drawn) | 172 °C |
| OCCCCCCCCCCCBr | 46 °C |
| CC(=O)CC(=O)O | 36.5 °C |
| COCC(CCC(=O)OC)N1CC=CC1 (stereo not drawn) | 144 to 146 °C |
| CCCCC=CCCC=CCCCCCCOC(C)=O | 25 °C |
| CC(C)(C)C(=O)C(=O)O | 90.5 °C |
| Oc1ccc2c(c1)C13CCCCC1(O)C(C2)N(CC1CCC1)CC3 (stereo not drawn) | 216 °C |
| Oc1c(F)cc(F)cc1F | 49.5 °C |
| CCOC(=O)Cc1nc(O)cs1 | 153 to 155 °C |
| Cc1cc(C)c2c(c1)CC(C)(C)C(=O)OC2=O | 99 to 100 °C |
| CCCCCCCCNC(=S)NN | 47 to 49 °C |
| OCC(O)CN1CCCC1 (stereo not drawn) | 43 to 48 °C |
| C1CSC1 | -73.2 °C |
| Clc1cc(Cl)c(OCC#CI)cc1Cl | 114 °C |
| CCc1c(C)n[nH]c1C | 40 to 45 °C |
| NCCCNCCO | 15 to 19 °C |
| CCCCCCCCCCCCCC=CC(O)C(N)CO (stereo not drawn) | 81 to 82 °C |
| CCCCCCCCCCCCCCOCCOCCOCCOCCOCCOCCO | 32.5 °C |
| CNC(C)(C)C(=O)O | 300 °C |
| CC12CCC(C=C/C1=N\O)C2(C)C (stereo not drawn) | 145 to 146 °C |

| SMILES | melting point |
| --- | --- |
| COc1c(OC)c(OC(C)=O)c2c(Cl)cccc2c1OC(C)=O | 134 °C |
| COc1cc(-c2n[nH]c(=S)n2/N=C/c2ccccc2O)cc(OC)c1OC | 220 to 222 °C |
| CCCCCCCCCC1CCCCC1 | -10 °C |
| C=CCCCCCCCCC=O | 7 °C |
| FC(F)(F)c1nnc2sc(=S)[nH]n12 | 160 °C |
| NCCCNCCNCCCN | -1.5 °C |
| CNC1(c2ccccc2Cl)CCCCC1=O (stereo not drawn) | 92.5 °C |
| CCCC(=O)c1cc(O)c(O)cc1O | 154 °C |
| CCCCCCCCCC(C)C | -47 °C |
| Cc1cc2nc(N)sc2cc1C | 185 to 189 °C |
| COc1ccccc1OC | 22.5 °C |
| CCOC(=O)C(/C=C1\C(=O)C2(C)CCC1C2(C)C)(/C=C1\C(=O)C2(C)CCC1C2(C)C)CC(C)C (stereo not drawn) | 156 °C |
| CCO[P@](=O)(c1ccc(OC)cc1)N1Cc2ccccc2C[C@@H]1C(=O)NO | 167 °C |
| O=C1C(Cl)C(CCl)CN1c1cccc(C(F)(F)F)c1 (stereo not drawn) | 67.7 °C |
| CCC1CC2CC3c4[nH]c5cc(OC)ccc5c4CCN(C2)C13 (stereo not drawn) | 214 °C |
| CC1(C)CC(NCCCCCCNC2CC(C)(C)NC(C)(C)C2)CC(C)(C)N1 | 64 °C |
| CNC(=O)C(C)(C(C)C)C(C)C | 60 °C |
| O=C(O)C1OC(C(=O)O)C(C(=O)O)C1C(=O)O (stereo not drawn) | 205 to 210 °C |
| C[Si](C)(C)C#Cc1ccccn1 | 42 to 45 °C |
| CCCC1COC(Cn2cncn2)(c2ccc(Cl)cc2Cl)O1 (stereo not drawn) | < 25 °C |
| CCC(=O)OC1CCC2C3CCC4=CC(=O)CCC4(C)C3CCC12C (stereo not drawn) | 120 °C |
| CSc1nnc(C(C)(C)C)c(=O)n1N=CC(C)C | 159 °C |
| CN(C)c1ccc(N=c2cc(-c3ccccc3)sc(-c3ccccc3)c2)cc1 | 165 °C |
| Cc1cncc(N2CCC(C(=O)Oc3c(F)c(F)c(F)c(F)c3F)CC2)n1 | 94 to 95 °C |
| CC(C)Nc1nc(Cl)nc(NC2CC2)n1 | 167 °C |
| Cc1cc(C(N)=S)n(C)n1 | 170 °C |
| CC1NC2CCCCCCCC(=O)OC3CCC(CCCCCCCC(=O)OC1CC2)NC3C (stereo not drawn) | 121 °C |
